US9448226B2, “Method of toxicological evaluation, method of toxicological screening and associated system” (Universite Technologie De Compiegne—UTC, priority 2010, dated 2016)

Tests used:
HEPG2/C3A cells = test: Metabolic response of C3A bioartificial liver in bioreactor to xenobiotic (1H NMR, PLS regression); format: cell-based, human; set-up: key: +: sign of the variation of its concentration (in brackets) when the amount of xenobiotic in the experiment increases; −: sign of the variation of its concentration (in brackets) when the amount of xenobiotic in the experiment increases
Excerpt: (§1) In the preferred embodiment described, ^1H NMR spectroscopy (proton NMR, which makes it possible to detect hydrogen atoms) was used to carry out a series of tests. These tests involved two cell lines and three potentially toxic substances, with the two lines being optionally in coculture. These cells are in one case HEPG2/C3A cells, or simply C3A, human hepatocyte cells, and in the other case Madin-Darby canine kidney (MDCK) cells. […] In particular, mention may be made of the pancreas, the heart, the testicles, parts of the brain, etc.
(§2) The medium samples are, for example, prepared using 350 μl of medium, mixed with 200 μl of 0.9 g/l saline solution composed of 90% water (H2O) and 10% heavy water (D2O), for the purpose of calibration. The 550 μl of solution is then transferred to an NMR analysis tube.
(§3) NMR is acquired at a frequency of 700 MHz by using a proton probe. A ^1D NMR spectrum is recorded using presaturation of the resonance of the water according to the following sequence: Trd-P90-t1-P90-tm-P90-Taq. Trd represents a delay of 2 seconds during which the resonance of the water is selectively irradiated, P90 is a 90° pulse of radio frequency and t1 corresponds to a delay of 3 μs. The resonance of the water is irradiated a second time during the mixing time (tm=100 ms) and an acquisition time of 1.95 s. For each sample, 128 interferograms are accumulated in order to increase the signal-to-noise ratio. These interferograms are multiplied by an exponential function corresponding to a 0.3 Hz enlarging of the line. Before obtaining a Fourier transform, the width of the interferogram is doubled by adding null points at the end of the interferogram, in order not to degrade the resolution of the spectrum. The scale in the horizontal dimension corresponds to the ^1H chemical shifts. It extends over a window of 10 ppm around the resonance of water. The scale in the vertical dimension corresponds to resonance intensity which is proportional to the number of protons present for a chemical group of each molecule of the sample. The spectra are then phased and a linear correction of the baseline is carried out, before calibration on the signal of the […] anomer of glucose at 5.23 ppm. The area between 4.67 ppm and 5 ppm around the residual signal of water is suppressed for better visibility, and the spectra are exported as a multidimensional data set.
(§4) The statistical analysis consists first of an unsupervised principal components analysis in order to locate aberrant points in the multidimensional data set. The principal components analysis makes it possible to compress the 40,000 redundant NMR present in the data set in a new orthonormal reference, with each axis representing a principal component of the variance of the data set, which is thus multidimensional. A so-called supervised multivariate statistical analysis is then carried out in order to discriminate culture conditions or groups of doses and to identify the metabolic signatures specific to the toxicological effects. This supervised analysis is principally carried out using partial least squares regression, through partial least squares discriminant analysis (PLS-DA), without however being limited to it. A PLS regression, just like a linear regression, makes it possible to identify the components of the data set (explanatory variables, X) that are quantitatively correlated with the non-explanatory variable (Y), whether the culture conditions, the cell type of the bioartificial organ, the type of treatment administered or the treatment dose. Artificial neural network structures can also be programmed to carry out this multivariate analysis.
(§5) Third, the metabolic responses of the various organs to various exposures to NH3 were studied. Three amounts of NH3 were administered (0 mM, 5 mM and 10 mM) to each type of bioartificial organ.

C3A cells = test: Metabolic response of C3A cell culture in Petri dishes to APAP (1H NMR, PLS regression); format: cell-based, human; set-up: key: +: sign of the variation of its concentration (in brackets) when the amount of xenobiotic in the experiment increases; −: sign of the variation of its concentration (in brackets) when the amount of xenobiotic in the experiment increases; settings: amount of xenobiotic increases
Protocol: Fourth, the specific metabolic responses of bioartificial livers exposed to various toxins were characterized (Table 4). Several toxic substances (NH3 ([…]); DMSO (0%, 1%, 2%, 4%); APAP (0.1 mM)) were administered to bioartificial livers comprised of C3A cells. In the case of treatment with APAP, the response of the bioartificial liver was compared with that of liver cells in culture in Petri dishes. […] The result is four PLS models specific to each treatment type: NH3 on C3A bioartificial liver, DMSO on C3A bioartificial liver, APAP on C3A bioartificial liver and, finally, APAP on C3A cell culture in Petri dishes. […] This table presents for each metabolite the sign of the variation of its concentration (in brackets) when the amount of xenobiotic in the experiment increases.

C3A/MDCK coculture = settings: NH3 0 mM, 5 mM and 10 mM
Excerpt: as §1, §2, §3, §4, §5

[1] = test system: Madin-Darby canine kidney (MDCK) cells; settings: Bioartificial kidney (MDCK cells); NH3 0 mM, 5 mM and 10 mM
Excerpt: as §1, §2, §3, §4, §5

[2] = C3A bioartificial liver, amount of xenobiotic increases (Table 4)
[3] = Bioartificial liver (C3A cells), NH3 0 mM, 5 mM and 10 mM

**Q.** How did the “Variation of Acetate concentration” value (HEPG2/C3A cells; [2]) turn out when `CC(=O)Nc1ccc(O)cc1` [APAP, N-acetyl-para-aminophenol] was run?
**A.** The value was “Acetate (+)”.

**Q.** What about the “Variation of Isoleucine concentration” value (HEPG2/C3A cells; [2]) of the same compound?
**A.** Its value is “Isoleucine (−)”.

**Q.** What about the “Variation of Pyruvate/oxaloacetate concentration” value (HEPG2/C3A cells; [2]) of the same compound?
**A.** Its value is “oxaloacetate (−)”.

**Q.** What about the “Variation of Succinate concentration” value (HEPG2/C3A cells; [2]) of the same compound?
**A.** Its value is “Succinate (−)”.

**Q.** What about the “Variation of Tyrosine concentration” value (HEPG2/C3A cells; [2]) of the same compound?
**A.** The value was “Tyrosine (+)”.

**Q.** And the “Variation of Unknown metabolite concentration” value (HEPG2/C3A cells; [2])?
**A.** The value was “Unknown (−)”.

**Q.** And the “Variation of Arginine concentration” value (C3A cells)?
**A.** The value was “Arginine (−)”.

**Q.** What about the “Variation of Ethanol concentration” value (C3A cells) of the same compound?
**A.** Its value is “Ethanol (−)”.

**Q.** What about the “Variation of Glutamate concentration” value (C3A cells) of the same compound?
**A.** The value was “Glutamate (−)”.

**Q.** And the “Variation of Isoleucine concentration” value (C3A cells)?
**A.** The value was “Isoleucine (−)”.

**Q.** What about the “Variation of Leucine concentration” value (C3A cells) of the same compound?
**A.** The value was “Leucine (−)”.

**Q.** And the “Variation of Lysine concentration” value (C3A cells)?
**A.** The value was “Lysine (−)”.

**Q.** And the “Variation of Phenylalanine concentration” value (C3A cells)?
**A.** The value was “Phenylalanine (−)”.

**Q.** `C[S+](C)[O-]` [DMSO, dimethyl sulfoxide] was tested. Which “Variation of Alpha-keto-isovalerate concentration” value (HEPG2/C3A cells; [2]) did it give?
**A.** The value was “isovalerate (−)”.

**Q.** What about the “Variation of Alpha-keto-methylvalerate concentration” value (HEPG2/C3A cells; [2]) of the same compound?
**A.** The value was “methylvalerate (−)”.

**Q.** And the “Variation of Glucose concentration” value (HEPG2/C3A cells; [2])?
**A.** The value was “Glucose (+)”.

**Q.** And the “Variation of Lactate concentration” value (HEPG2/C3A cells; [2])?
**A.** The value was “Lactate (−)”.

**Q.** And the “Variation of Phenylalanine concentration” value (HEPG2/C3A cells; [2])?
**A.** Its value is “Phenylalanine (+)”.

**Q.** And the “Variation of Tyrosine concentration” value (HEPG2/C3A cells; [2])?
**A.** The value was “Tyrosine (+)”.

**Q.** For `N` [NH3, ammonia], which “Variation of Alanine concentration” value (HEPG2/C3A cells; [3]) is on record?
**A.** Its value is “+”.

**Q.** And the “Variation of Alpha-keto-isovalerate concentration” value (HEPG2/C3A cells; [3])?
**A.** Its value is “−”.

**Q.** What about the “Variation of Alpha-keto-methylvalerate concentration” value (HEPG2/C3A cells; [3]) of the same compound?
**A.** Its value is “−”.

**Q.** What about the “Variation of Isoleucine concentration” value (HEPG2/C3A cells; [3]) of the same compound?
**A.** Its value is “+”.

**Q.** What about the “Variation of Leucine concentration” value (HEPG2/C3A cells; [3]) of the same compound?
**A.** The value was “+”.

**Q.** And the “Variation of Succinate concentration” value (HEPG2/C3A cells; [3])?
**A.** The value was “+”.

**Q.** And the “Variation of Valine concentration” value (HEPG2/C3A cells; [3])?
**A.** Its value is “+”.

**Q.** And the “Variation of Alanine concentration” value (HEPG2/C3A cells; [2])?
**A.** Its value is “Alanine (+)”.

**Q.** And the “Variation of Alpha-keto-isovalerate concentration” value (HEPG2/C3A cells; [2])?
**A.** The value was “isovalerate (−)”.

**Q.** What about the “Variation of Alpha-keto-methylvalerate concentration” value (HEPG2/C3A cells; [2]) of the same compound?
**A.** The value was “methylvalerate (−)”.

**Q.** And the “Variation of Isoleucine concentration” value (HEPG2/C3A cells; [2])?
**A.** The value was “Isoleucine (+)”.

**Q.** What about the “Variation of Leucine concentration” value (HEPG2/C3A cells; [2]) of the same compound?
**A.** Its value is “Leucine (+)”.

**Q.** And the “Variation of Succinate concentration” value (HEPG2/C3A cells; [2])?
**A.** Its value is “Succinate (+)”.

**Q.** What about the “Variation of Valine concentration” value (HEPG2/C3A cells; [2]) of the same compound?
**A.** The value was “Valine (+)”.

**Q.** What about the “Variation of Alpha-hydroxyisobutyrate concentration” value (C3A/MDCK coculture) of the same compound?
**A.** Its value is “+”.

**Q.** And the “Variation of Glutamate concentration” value (C3A/MDCK coculture)?
**A.** The value was “+”.

**Q.** And the “Variation of Glutamine concentration” value (C3A/MDCK coculture)?
**A.** The value was “+”.

**Q.** What about the “Variation of Lysine concentration” value (C3A/MDCK coculture) of the same compound?
**A.** Its value is “+”.

**Q.** What about the “Variation of Ornithine concentration” value (C3A/MDCK coculture) of the same compound?
**A.** The value was “−”.

**Q.** What about the “Variation of Succinate concentration” value (C3A/MDCK coculture) of the same compound?
**A.** The value was “+”.

**Q.** What about the “Variation of Valine concentration” value (C3A/MDCK coculture) of the same compound?
**A.** The value was “+”.

**Q.** What about the “Variation of Glutamine concentration” value [1] of the same compound?
**A.** The value was “−”.

**Q.** And the “Variation of Lysine concentration” value [1]?
**A.** Its value is “−”.

**Q.** And the “Variation of Oxaloacetate concentration” value [1]?
**A.** Its value is “−”.

**Q.** And the “Variation of Pyroglutamate concentration” value [1]?
**A.** Its value is “+”.

**Q.** What about the “Variation of Pyruvate concentration” value [1] of the same compound?
**A.** Its value is “−”.

**Q.** And the “Variation of Unknown metabolite concentration” value [1]?
**A.** Its value is “−”.
